{
  "source": "patent US5256788A",
  "about": "“Moranoline derivatives and their production and the use of moranoline and its derivatives as a stabilizing agent for enzymes” (Nippon Shinyaku Co. Ltd., priority 1989, dated 1993)",
  "target": "T1, glucoamylase (Rhizopus arrhizus, UniProt P07683)",
  "T1 construct": "maltose substrate",
  "T1 sequence (P07683 26-604)": "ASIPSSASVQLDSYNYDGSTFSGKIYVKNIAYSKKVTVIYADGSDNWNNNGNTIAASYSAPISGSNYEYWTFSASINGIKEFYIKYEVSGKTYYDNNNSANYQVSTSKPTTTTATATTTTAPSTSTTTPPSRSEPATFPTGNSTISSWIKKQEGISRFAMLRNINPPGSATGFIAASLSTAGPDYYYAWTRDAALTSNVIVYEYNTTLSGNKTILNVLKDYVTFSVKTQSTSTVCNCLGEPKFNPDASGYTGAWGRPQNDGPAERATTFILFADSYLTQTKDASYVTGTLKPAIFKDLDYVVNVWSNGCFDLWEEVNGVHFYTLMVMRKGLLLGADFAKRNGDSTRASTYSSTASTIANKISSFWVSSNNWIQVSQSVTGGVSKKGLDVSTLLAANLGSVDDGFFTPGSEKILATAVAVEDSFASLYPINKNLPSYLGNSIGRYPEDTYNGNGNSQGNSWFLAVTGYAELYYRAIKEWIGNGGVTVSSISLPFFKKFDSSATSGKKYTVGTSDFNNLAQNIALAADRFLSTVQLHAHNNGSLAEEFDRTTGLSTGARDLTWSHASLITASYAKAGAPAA",
  "test": "Stabilization of GA (aqueous solution) by moranoline, N-methylmoranoline",
  "type": "biochemical, Rhizopus niveus",
  "procedure": "As the enzyme, Rhizopus niveus-derived reagent glucoamylase manufactured by Seikagaku Kogyo Co., Ltd. was used.\nAfter 5 mg of the enzyme was dissolved in 1 ml of 0.1M acetate buffer solution (pH 5.0), moranoline and N-methylmoranoline were dissolved in the solution in a concentration of 6000 μg/ml. The solution was charged in a test tube with a screw stopper followed by incubation at 50° C. Each enzyme solution was diluted with 0.1M acetate buffer solution (pH 5.0) to 100-fold and 100 μl of the dilution was taken. After 400 μl of 5% maltose solution (0.05M acetate buffer solution, pH 4.6) was added thereto, the mixture was reacted at 40° C. for 20 minutes. […] Thereafter, the system was ice cooled and absorbency was measured at 500 nm to determine the glucose amount. […] When the initial enzyme activity (amount of glucose produced) was made […], relative enzyme activity was determined. […]\nAfter 5 mg of the enzyme was dissolved in 1 ml of 0.1M acetate buffer solution (pH 5.0), moranoline and N-methylmoranoline were dissolved in the solution in a concentration of 6000 μg/ml. […] Thereafter, the system was ice cooled and absorbancy was measured at 500 nm to determine the glucose amount. […] When the initial enzyme activity (amount of glucose produced) was made 100, relative enzyme activity was determined. […]",
  "data": [
    {"smiles": "OC[C@H]1NC[C@H](O)[C@@H](O)[C@@H]1O", "note": "[moranoline]", "values": [
      {"measurement": "inhibition of the enzyme activity of glucoamylase", "value": "inhibit the enzyme activity of glucoamylase"}
    ]}
  ]
}
